pIC50: −log10 of the molar value. Structures can show the parent of a compound that is named as a salt.
Columns and labels:
yohimbine toxicity = assay: animal or person; assay type: in vivo, mice; details: 30 mg/kg s.c., alone (4 out of 400 mice)
Experimental: The potentiation of yohimbine toxicity is considered an additional test for screening antidepressant drugs. The method used in this invention is as follows:
Male mice weighing 20 to 30 grams are used. They are housed under standard laboratory conditions with free access to food and water. Compounds are dissolved in distilled water and a suitable surfactant is added in case of poor solubility. Yohimbine hydrochloride is dissolved in distilled water as well. Both compound and yohimbine are administered in a volume of […].
Compounds and vehicle are administered orally 60 minutes prior to a sublethal dose (30 mg/kg s.c.) of yohimbine hydrochloride which alone causes death in about […] of mice (4 out of 400). Ten mice per group are then placed in plastic cages (26×10×16 cm) with food and water available ad libitum. Mortality rate is assessed 18 hours postdosing. ED50 is defined as dose of drug causing death in 5/10 mice and is calculated by probit analysis.

[1] = system: scopolamine-induced memory deficit; assay: Dark Avoidance Assay (scopolamine induced memory deficit reversal); assay type: in vivo, mice; details: Mus musculus, sc, 24 h, read-out: % of Animals with Scopolamine Induced Memory Deficit Reversal
Experimental: In this assay mice are tested for their ability to remember an unpleasant stimulus for a period of 24 hours. A mouse is placed in a chamber that contains a dark compartment; a strong incandescent light drives it to the dark compartment, where an electric shock is administered through metal plates on the floor. The animal is removed from the testing apparatus and tested again, 24 hours later, for the ability to remember the electric shock.
If scopolamine, an anticholinergic that is known to cause memory impairment, is administered before an animal's initial exposure to the test chamber, the animal re-enters the dark compartment shortly after being placed in the test chamber 24 hours later. This effect of scopolamine is blocked by an active test compound, resulting in a greater interval before re-entry into the dark compartment.
The results for an active compound are expressed as the percent of a group of animals in which the effect of scopolamine is blocked, as manifested by an increased interval between being placed in the test chamber and re-entering the dark compartment.

norepinephrine uptake = assay type: biochemical; details: rat brain synaptosomes, 50 nM 3H-NE, 37° C., 5 min; read-out: Reuptake Inhibition of neurotransmitters, Norepinephrine
Acute toxicity (LD50) = assay type: in vivo; details: in vivo, ip, death within 24 hours
Experimental: LD50 is determined by the dose (mg/kg) at which 50% of the test animals die within 24 hours. In many cases this dose is an approximation.

| Structure (SMILES) | death in mice of yohimbine hydrochloride alone (yohimbine toxicity) | responders at 0.31 mg/kg [1] | pIC50 (norepinephrine uptake) | LD50 at 24 h (Acute toxicity (LD50)) |
| --- | --- | --- | --- | --- |
| COC(=O)[C@@H]1[C@H]2C[C@H]3c4[nH]c5ccccc5c4CCN3C[C@@H]2CC[C@@H]1O [yohimbine hydrochloride, reference compound] | about 1% |  |  |  |
| CN1CC[C@@]2(C)c3cc(OC(=O)Nc4ccncc4)ccc3N(C)[C@@H]12 [(3aS-cis)-1,2,3,3a,8,8a-Hexahydro-1,3a,8-trimethylpyrrolo[2,3-b]indol-5-ol,4-pyridinyl carbamate ester] |  | 27% | < 4.70 | ~40 mg/kg |

From patent US5187165A, “Memory enhancing and analgesic 1,2,3a,8,8a-hexahydro-3a,8(and 1,3a,8)-di(and tri)methylpyrrolo[2,3-b]indoles” (priority 1988, dated 1993)
